# Experimental data: patent publication US6573045B1, “Methods and kits for discovery of RNA-binding compounds” (Ribotargets, Ltd., priority 1998, dated 2003)
# Where two headings read alike, the source gives them in different places.
# Experiments:
# TAR RNA Duplex-2 = assay: Competition binding assay, FAM-labelled TAR RNA Duplex-2 / TAMRA-labelled ADP-1; set-up: species or system HIV; conditions: saturating concentrations of ADP-1 competitor
# Source text: In order to obtain efficient fluorescent resonance energy transfer and/or quenching it is important that the fluorescent groups are placed on the reporter and the target RNA to permit close contact between the donor and acceptors after complex formation. In this experiment the FAM group on the TAR RNA target (Duplex 2) has been displaced by the addition of a base pair. This alteration to the target RNA structure has the effect of increasing the distance of the FAM group from the binding site on the TAR RNA duplex by 2 Å more than the equivalent group on the TAR RNA Duplex 1 target. In addition, insertion of the base pair rotates the FAM group by 18° compared to the equivalent group in the Duplex-1 TAR RNA target.
# Because Duplex-2 has a sub-optimal spacing of the FAM-label on TAR RNA it gives rise to a poor signal in the assay compared to Duplex-1, with a less than 50% rise in fluorescence in the presence of saturating concentrations of ADP-1 competitor.
# FAM-labelled TAR RNA = assay: Quenching of FAM-labelled TAR RNA by unlabelled ADP-1 peptide; assay type: binding, HIV; conditions: 2 nM FAM-TAR
# Description: The FAM-TAR was diluted from a 100 nM stock solution in TK buffer (50 mM Tris-HCl pH7.6, 20 mM KCl) to obtain a final assay concentration of 2 nM in 200 μl reaction volume. The unlabelled ADP-1 peptide was prepared in TK buffer as a 2 fold dilution series at 10 times the assay concentration and diluted 10 fold into the final assay volume (200 μl). After complex formation was performed for 20 minutes at room temperature the fluorescence-emission at 535 nm was determined in a Wallac Victor™ 1420 following excitation at 485 nm.
# The level of fluorescence obtained in the absence of the unlabelled ADP-1 peptide is normalised to 100% and the levels of fluorescence obtained in the presence of the unlabelled ADP-1 peptide are expressed as a percentage of this value.
# TAR RNA = assay: Competition binding assay, FAM-labelled TAR RNA Duplex-1 / TAMRA-labelled ADP-1; set-up: species or system HIV; conditions: for Ki: 2 nM FAM-labelled TAR RNA, 18 nM unlabelled TAR RNA; for binding to TAR RNA (competitor efficiency): FIG. 8 and FIG. 9
# Description: This experiment was performed with a starting condition in which there is an equimolar ratio of TAMRA-labelled ADP-1 peptide and TAR RNA (both labelled and unlabelled). A pre-mix is prepared on ice containing 2 nM FAM-labelled TAR RNA, 18 nM unlabelled TAR RNA and 20 nM TAMRA-labelled ADP-1 peptide diluted in TK buffer to provide the final concentrations (as detailed above) in each 200 μl reaction volume. The ADP-1 peptide was prepared as a 2 fold dilution series in TK buffer at 10 times the assay concentration and diluted 10 fold into the final assay volume. The competition assays were equilibrated for 15 minutes at room temperature and the fluorescence-emission spectra at 535 nm determined in a Wallac Victor™ 1420 following excitation at 485 nm.
# Under these conditions, the Ki for the unlabelled ADP-1 competitor was measured as 100 nM.
# TAMRA-labelled ADP-1 peptide and increasing concentrations of C5 cyclic peptide (SEQ ID 9). A pre-mix is prepared on ice containing the FAM-labelled TAR RNA, unlabelled TAR RNA and the TAMRA-labelled ADP-1 peptide diluted in TK buffer to provide the final concentrations (as detailed above) in each 200 μl reaction volume. The C5 cyclic peptide was prepared as a 2 fold dilution series in TK buffer at 10 times the assay concentration and diluted 10 fold in to the final assay volume.
# [1] = molecular target: FAM-labelled TAR RNA duplex 1; assay: Quenching of FAM-labelled TAR RNA by TAMRA-labelled ADP-1 (complex formation); assay type: binding, HIV
# Description: In this experiment, 2 nM FAM-labelled TAR RNA was mixed with increasing concentrations of TAMRA-labelled ADP-1 peptide. The FAM-TAR was diluted from a 100 nM stock solution in TK buffer (50 mM Tris-HCl pH 7.6, 20 mM KCl) to obtain a final assay concentration of 2 nM in 200 μl reaction volume. The TAMRA-labelled ADP-1 peptide was prepared in TK buffer as a 2-fold dilution series at 10 times the assay concentration and diluted 10 fold in to the final assay volume (200 μl). Complex formation was performed for 20 minutes at room temperature and the fluorescence-emission spectra at 535 nm determined in a Wallac Victor™ 1420 following excitation at 485 nm.
# The level of fluorescence obtained in the absence of TAMRA-labelled ADP-1 peptide gave a fluorescence intensity of 2100 units. As the ADP-1 concentration is increased there is a progressive loss of fluorescence intensity detected, until at concentrations of ADP-1 greater than 100 nM there is over 80% loss of fluorescence intensity and there is no further quenching detected.
# ss-19mer RNA = assay: Dabcyl-peptide binding to Fam-labelled RNA (quenching), single stranded RNA; conditions: for Kd: ss-19mer, 110 mM KCl
# Source text: (§1) A representative subset comprising 40 peptide sequences from the total of 243 possible sequences was synthesised and is shown in Table 6. The peptides from the library are: No. 3 (SEQ ID NO:11), 4 (SEQ ID NO:12), 5 (SEQ ID NO:13), 6 (SEQ ID NO:14), 7 (SEQ ID NO:15), 8 (SEQ ID NO:16), 9 (SEQ ID NO:17), 10 (SEQ ID NO:18), 11 (SEQ ID NO:19), 12 (SEQ ID NO:20), 13 (SEQ ID NO:21), 14 (SEQ ID NO:22), 15 (SEQ ID NO:23), 16 (SEQ ID NO:24), 17 (SEQ ID NO:25), 18 (SEQ ID NO:26), 19 (SEQ ID NO:27), 20 (SEQ ID NO:28), 21 (SEQ ID NO:29), 22 (SEQ ID NO:30), 23 (SEQ ID NO:31), 24 (SEQ ID NO:32), 25 (SEQ ID NO:33), 26 (SEQ ID NO:34), 27 (SEQ ID NO:35), 28 (SEQ ID NO:36), 29 (SEQ ID NO:37), 30 (SEQ ID NO:38), 31 (SEQ ID NO:39), 32 (SEQ ID NO:40), 33 (SEQ ID NO:41), 34 (SEQ ID NO:42), 35 (SEQ ID NO:43), 36 (SEQ ID NO:44), 37 (SEQ ID NO:45), 38 (SEQ ID NO:46), 39 (SEQ ID NO:47), 40 (SEQ ID NO:48), 41 (SEQ ID NO:49), 42 (SEQ ID NO:50). These peptides were assayed for their ability to bind to range of RNA sequences carrying fluorescein attached to the 5′ end, as shown in FIG. 25.
# (§2) FIG. 26. presents binding data for the peptide sequence 5 (KKQKR) (SEQ ID NO: 13) and the 4 RNA sequences. Reactions (100 μl) containing Fam-labelled RNA (10 nM) were mixed with increasing concentrations of Dabcyl-labelled ADP-1 peptide (up to 250 nM) in 50 mM Tris/Cl, pH7.4, 20 mM or 110 mM KCl (as indicated), 5 μg/ml BSA, 0.01% Triton X-100, 1% DMSO. Fluorescence (excitation 490 nm/emission at 535 nm) was determined using a Victor plate reader.
# (§3) Dissociation constants were determined by fitting a binding isotherm (1-site-binding) to the data using the equation:
# (§4) Y=((Fmax−Fmin)−((Fmax−Fmin)*X/(Kd+X)))+Fmin
# (§5) where Fmax is fluorescence in the absence of quencher, Fmin is fluorescence at saturation, and X is peptide concentration.
# GTPase-LHL RNA = assay: Dabcyl-peptide binding to Fam-labelled RNA (quenching), GTPase LHL; conditions: for Kd: GTPase-LHL, 110 mM KCl; for binding to the GTPase RNA: FIG. 27
# Source text: as §1, §2, §3, §4, §5
# TAR bulge RNA = assay: Dabcyl-peptide binding to Fam-labelled RNA (quenching), TAR; set-up: species or system HIV; conditions: 110 mM KCl
# Source text: as §1, §2, §3, §4, §5
# RRE RNA = assay: Dabcyl-peptide binding to Fam-labelled RNA (quenching), RRE; set-up: species or system HIV; conditions: for Kd: RRE, 110 mM KCl
# Source text: as §1, §2, §3, §4, §5
# [2] = 20 nM TAMRA-labelled ADP-1, 0-100 μM cyclic peptide, average ± SD of three, read-out: Ki
Substance,Kd (ss-19mer RNA),Kd (GTPase-LHL RNA),Kd (TAR bulge RNA),other results
"ADP-1: unlabelled peptide derived from HIV Tat, residues 37 to 72 (SEQ ID NO: 7) (FTTKALGISYGRKKRRQRRRPPQGSGTHQVSLSKQ; Human immunodeficiency virus)",–,–,–,"rise in fluorescence (TAR RNA Duplex-2): less than 50%; quenching of the FAM group present on TAR RNA (FAM-labelled TAR RNA): ≤ 20%; Ki (TAR RNA; 20 nM TAMRA-labelled ADP-1, read-out: Ki for the unlabelled ADP-1 competitor): 100 nM"
TAMRA-Phe-Thr-Thr-Lys-Ala-Leu-Gly-Ile-Ser-Tyr-Gly-Arg-Lys-Lys-Arg-Arg-G ln-Arg-Arg-Arg-Pro-Pro-Gln-Gly-Ser-Gln-Thr-His-Gln-Val-Ser-Leu-Ser-Lys-Gln [TAMRA-labelled ADP-1],–,–,–,"Kd ([1]; 2 nM FAM-labelled TAR RNA, TK buffer, read-out: binding constant (Kd) of TAMRA-labelled ADP-1 for FAM-labelled TAR RNA duplex 1): ~25 nM; loss of fluorescence intensity ([1]; concentrations of ADP-1 greater than 100 nM): over 80%"
"c(KRRFR) [C5] (cyclo(KRRFR); also: D-residues marked by underlining, not recoverable) [cyclic pentapeptide]",–,–,–,Ki (TAR RNA; [2]): 1870 ± 420 nM; binding to TAR RNA (competitor efficiency) (TAR RNA): most efficient competitors
cyclo(KRRFR) [C5/1],–,–,–,Ki (TAR RNA; [2]): 15300 ± 2500 nM
cyclo(KRRFR) [C5/2],–,–,–,Ki (TAR RNA; [2]): 12700 ± 6580 nM
cyclo(KRRFR) [C5/3],–,–,–,Ki (TAR RNA; [2]): 15200 ± 3790 nM
cyclo(KRRFR) [C5/4],–,–,–,Ki (TAR RNA; [2]): 8280 ± 3010 nM; binding to TAR RNA (competitor efficiency) (TAR RNA): most efficient competitors
cyclo(KRRFR) [C5/5],–,–,–,Ki (TAR RNA; [2]): 17100 ± 13000 nM
library peptide Dabcyl-Thr-Arg-Lys-X-X-X-X-X-Arg-Lys-Ser-Gly with X5 = KKKKK,> 500 nM,26 nM,24 nM,Kd (RRE RNA): 12 nM
library peptide Dabcyl-Thr-Arg-Lys-X-X-X-X-X-Arg-Lys-Ser-Gly with X5 = KKKQR,> 500 nM,76 nM,27 nM,Kd (RRE RNA): 30 nM
library peptide Dabcyl-Thr-Arg-Lys-X-X-X-X-X-Arg-Lys-Ser-Gly with X5 = KKQKR,> 500 nM,74 nM,56 nM,"binding of the peptide, measured by quenching of the fluorescenated RNA (ss-19mer RNA; single stranded RNA, FIG. 26): no significant binding; binding of the peptide, measured by quenching of the fluorescenated RNA (RRE RNA; RRE sequence compared with the other RNAs, FIG. 26): highest affinity binding; Kd (RRE RNA): 15 nM"
library peptide Dabcyl-Thr-Arg-Lys-X-X-X-X-X-Arg-Lys-Ser-Gly with X5 = KKQRR,> 500 nM,55 nM,–,Kd (RRE RNA): 20 nM
library peptide Dabcyl-Thr-Arg-Lys-X-X-X-X-X-Arg-Lys-Ser-Gly with X5 = KKRQR,> 500 nM,43 nM,–,Kd (RRE RNA): 24 nM
library peptide Dabcyl-Thr-Arg-Lys-X-X-X-X-X-Arg-Lys-Ser-Gly with X5 = KQKKR,–,–,16 nM,–
library peptide Dabcyl-Thr-Arg-Lys-X-X-X-X-X-Arg-Lys-Ser-Gly with X5 = KQKRR,–,–,11 nM,–
library peptide Dabcyl-Thr-Arg-Lys-X-X-X-X-X-Arg-Lys-Ser-Gly with X5 = KQQQR,–,–,> 500 nM,–
library peptide Dabcyl-Thr-Arg-Lys-X-X-X-X-X-Arg-Lys-Ser-Gly with X5 = KQRQR,–,–,9 nM,–
library peptide Dabcyl-Thr-Arg-Lys-X-X-X-X-X-Arg-Lys-Ser-Gly with X5 = QQQKR,–,–,> 500 nM,–
library peptide Dabcyl-Thr-Arg-Lys-X-X-X-X-X-Arg-Lys-Ser-Gly with X5 = QQQQQ,> 500 nM,> 500 nM,–,binding to the GTPase RNA (GTPase-LHL RNA): no significant binding
library peptide Dabcyl-Thr-Arg-Lys-X-X-X-X-X-Arg-Lys-Ser-Gly with X5 = QQQRR,–,–,> 500 nM,–
library peptide Dabcyl-Thr-Arg-Lys-X-X-X-X-X-Arg-Lys-Ser-Gly with X5 = RQQQR,–,–,> 500 nM,–
library peptide Dabcyl-Thr-Arg-Lys-X-X-X-X-X-Arg-Lys-Ser-Gly with X5 = RRRRR,194 nM,16 nM,–,binding to the GTPase RNA (GTPase-LHL RNA): Efficient binding; Kd (RRE RNA): 30 nM
